# Data from patent publication US20230073777A1, “CYCLIC-AMP RESPONSE ELEMENT BINDING PROTEIN (CBP) AND/OR ADENOVIRAL E1A BINDING PROTEIN OF 300 KDA (P300) DEGRADATION COMPOUNDS AND METHODS OF USE” (CULLGEN (SHANGHAI), INC., priority 2019, published 2023).
# Read-outs that look alike come from different tables or passages of the source.
# Legend:
# LNCaP cells = experiment: LNCaP cell viability assay (CellTiter-Glo); assay type: cell-based; conditions: Homo sapiens, 72 h, LNCaP prostate cancer cell viability inhibition, 3 days
# Method in brief: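 LNCaP cells, 5000/well, exposed to compounds in 12-point 3-fold serial dilution (top 10 μM) for 3 days. Viability by CellTiter-Glo luminescence, normalized to untreated cells; IC50 by least-squares nonlinear regression.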
# P300 = P300 (Homo sapiens, UniProt Q09472); experiment: Immunoblotting of P300 protein levels in LNCaP or 22RV1 cells; assay type: cell-based; design: LNCaP or 22RV1 cells that express CBP/P300 proteins were treated with GNE-781 or the bivalent compounds; endogenous in cells; host or cells: LNCaP (clone FGC) or 22RV1 cells; conditions: read-out: Degradation (10 nM)
# Method in brief: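 LNCaP or 22RV1 cells treated with compounds for indicated hours, DMSO as negative control. RIPA lysates resolved by SDS-PAGE and immunoblotted for P300 or CBP, tubulin or vinculin as loading control; chemiluminescent bands quantitated.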
# [1] = percentage of inhibition of p300 at 10 nM (Table 3)
# [2] = percentage of inhibition of p300 at 10 nM (Table 2)
# Chain of P300 (Q09472 whole entry): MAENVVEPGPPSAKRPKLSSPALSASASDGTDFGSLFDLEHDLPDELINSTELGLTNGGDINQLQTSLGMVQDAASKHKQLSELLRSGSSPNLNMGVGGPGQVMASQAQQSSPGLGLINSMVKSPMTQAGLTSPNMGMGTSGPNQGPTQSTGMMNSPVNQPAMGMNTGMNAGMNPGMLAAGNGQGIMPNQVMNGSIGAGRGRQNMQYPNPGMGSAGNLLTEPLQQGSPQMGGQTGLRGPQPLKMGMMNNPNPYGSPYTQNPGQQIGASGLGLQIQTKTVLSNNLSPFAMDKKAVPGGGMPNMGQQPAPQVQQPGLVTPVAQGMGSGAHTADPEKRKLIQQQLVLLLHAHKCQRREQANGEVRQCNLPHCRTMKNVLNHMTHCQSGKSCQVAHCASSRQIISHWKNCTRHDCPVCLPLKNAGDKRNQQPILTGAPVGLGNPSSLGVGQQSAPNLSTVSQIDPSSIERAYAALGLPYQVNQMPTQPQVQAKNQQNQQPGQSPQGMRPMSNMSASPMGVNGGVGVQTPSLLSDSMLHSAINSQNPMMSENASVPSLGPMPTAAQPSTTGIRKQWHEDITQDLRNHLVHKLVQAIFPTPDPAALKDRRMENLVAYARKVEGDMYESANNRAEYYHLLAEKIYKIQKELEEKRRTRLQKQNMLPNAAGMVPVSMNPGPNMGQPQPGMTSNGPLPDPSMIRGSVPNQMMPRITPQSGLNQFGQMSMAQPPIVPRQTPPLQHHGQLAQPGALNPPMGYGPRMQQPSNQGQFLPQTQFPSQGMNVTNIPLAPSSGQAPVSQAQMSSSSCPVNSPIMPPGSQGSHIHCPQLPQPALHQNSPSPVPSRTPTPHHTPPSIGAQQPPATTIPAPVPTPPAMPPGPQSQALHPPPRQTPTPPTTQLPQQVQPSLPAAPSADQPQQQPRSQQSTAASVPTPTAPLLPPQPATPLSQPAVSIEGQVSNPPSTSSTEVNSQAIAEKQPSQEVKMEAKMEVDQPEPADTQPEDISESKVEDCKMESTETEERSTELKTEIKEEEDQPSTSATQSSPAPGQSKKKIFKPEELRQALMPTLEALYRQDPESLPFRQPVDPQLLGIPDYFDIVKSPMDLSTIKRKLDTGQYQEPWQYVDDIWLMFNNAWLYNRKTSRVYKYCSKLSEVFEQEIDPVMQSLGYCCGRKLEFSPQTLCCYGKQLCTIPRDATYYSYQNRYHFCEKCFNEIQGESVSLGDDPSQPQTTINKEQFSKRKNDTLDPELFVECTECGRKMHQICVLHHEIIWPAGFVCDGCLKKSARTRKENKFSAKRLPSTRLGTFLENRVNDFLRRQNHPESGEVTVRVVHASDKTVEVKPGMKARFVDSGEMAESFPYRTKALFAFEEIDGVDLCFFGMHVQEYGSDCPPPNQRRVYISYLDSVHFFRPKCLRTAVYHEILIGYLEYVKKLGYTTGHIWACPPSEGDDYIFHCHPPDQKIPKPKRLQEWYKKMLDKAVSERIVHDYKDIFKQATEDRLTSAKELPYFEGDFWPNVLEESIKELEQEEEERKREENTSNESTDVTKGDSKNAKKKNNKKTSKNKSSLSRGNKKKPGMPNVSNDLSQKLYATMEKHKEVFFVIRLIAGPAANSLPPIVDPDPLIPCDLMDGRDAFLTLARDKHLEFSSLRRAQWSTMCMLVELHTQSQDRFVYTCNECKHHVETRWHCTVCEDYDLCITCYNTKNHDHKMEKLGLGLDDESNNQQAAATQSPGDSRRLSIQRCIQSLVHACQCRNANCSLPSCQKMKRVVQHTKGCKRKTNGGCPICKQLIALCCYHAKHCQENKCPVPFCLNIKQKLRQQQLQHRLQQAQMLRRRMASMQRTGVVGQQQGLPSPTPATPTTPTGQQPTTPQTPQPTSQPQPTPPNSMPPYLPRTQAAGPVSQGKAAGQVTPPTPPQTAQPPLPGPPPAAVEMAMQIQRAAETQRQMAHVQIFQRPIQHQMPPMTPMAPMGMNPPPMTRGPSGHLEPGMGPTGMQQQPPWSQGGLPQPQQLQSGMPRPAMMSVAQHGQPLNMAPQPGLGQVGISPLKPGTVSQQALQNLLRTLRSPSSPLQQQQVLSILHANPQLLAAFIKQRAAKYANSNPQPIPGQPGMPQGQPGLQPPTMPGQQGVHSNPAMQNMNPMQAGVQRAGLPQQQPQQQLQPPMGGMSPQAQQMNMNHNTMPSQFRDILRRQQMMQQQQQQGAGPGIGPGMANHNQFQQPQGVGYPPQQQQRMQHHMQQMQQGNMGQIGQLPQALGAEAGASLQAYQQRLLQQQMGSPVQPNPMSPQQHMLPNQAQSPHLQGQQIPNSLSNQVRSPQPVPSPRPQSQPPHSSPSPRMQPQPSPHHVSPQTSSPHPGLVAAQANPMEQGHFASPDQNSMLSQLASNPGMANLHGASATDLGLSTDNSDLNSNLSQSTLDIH
IC50 (LNCaP cells; CellTiter-Glo (Table 3)),inhibition at 0.01 µM (P300; [1]),IC50 (LNCaP cells; CellTiter-Glo (Table 2)),inhibition at 0.01 µM (P300; [2]),Structure (SMILES)
27.5 nM,< 20%,–,–,"CNC(=O)N1CCc2c(c(N3CCCc4cc(-c5cnn(C)c5)c(C(F)F)cc43)nn2C2CCN(C(=O)CCOCCNc3cccc4c3C(=O)N(C3CCC(=O)NC3=O)C4=O)CC2)C1 (stereo not shown) [P-051, 3-(7-(Difluoromethyl)-6-(1-methyl-1H-pyrazol-4-yl)-3,4-dihydroquinolin-1(2H)-yl)-1-(1-(3-(2-((2-(2,6-dioxopiperidin-3-yl)-1,3-dioxoisoindolin-4-yl)amino)ethoxy)propanoyl)piperidin-4-yl)-N-methyl-1,4,6,7-tetrahydro-5H-pyrazolo[4,3-c]pyridine-5-carboxamide]"
0.2 nM,> 80%,–,–,"CC(=O)N1CCc2c(c(N3CCCc4cc(-c5cnn(C)c5)c(C(F)F)cc43)nn2C2CCN(C(=O)CCCCCCCCNc3cccc4c3n(C)c(=O)n4C3CCC(=O)NC3=O)CC2)C1 (stereo not shown) [P-160, 3-(4-((9-(4-(5-acetyl-3-(7-(difluoromethyl)-6-(1-methyl-1H-pyrazol-4-yl)-3,4-dihydroquinolin-1(2H)-yl)-4,5,6,7-tetrahydro-1H-pyrazolo[4,3-c]pyridin-1-yl)piperidin-1-yl)-9-oxononyl)amino)-3-methyl-2-oxo-2,3-dihydro-1H-benzo[d]imidazol-1-yl)piperidine-2,6-dione]"
26.6 nM,> 80%,–,–,"CNC(=O)N1CCc2c(c(N3CCCc4cc(-c5cnn(C)c5)c(C(F)F)cc43)nn2C2CCN(C(=O)CCCCCNc3cccc4c3C(=O)N(C3CCC(=O)NC3=O)C4)CC2)C1 (stereo not shown) [P-096, 3-(7-(difluoromethyl)-6-(1-methyl-1H-pyrazol-4-yl)-3,4-dihydroquinolin-1(2H)-yl)-1-(1-(6-((2-(2,6-dioxopiperidin-3-yl)-3-oxoisoindolin-4-yl)amino)hexanoyl)piperidin-4-yl)-N-methyl-1,4,6,7-tetrahydro-5H-pyrazolo[4,3-c]pyridine-5-carboxamide]"
–,–,7.3 nM,> 80%,"CNC(=O)N1CCc2c(c(N3CCCc4cc(-c5cnn(C)c5)c(C(F)F)cc43)nn2C2CCN(C(=O)CCCNc3cccc4c3C(=O)N(C3CCC(=O)NC3=O)C4=O)CC2)C1 (stereo not shown) [P-015, 3-(7-(difluoromethyl)-6-(1-methyl-1H-pyrazol-4-yl)-3,4-dihydroquinolin-1(2H)-yl)-1-(1-(4-((2-(2,6-dioxopiperidin-3-yl)-1,3-dioxoisoindolin-4-yl)amino)butanoyl)piperidin-4-yl)-N-methyl-1,4,6,7-tetrahydro-5H-pyrazolo[4,3-c]pyridine-5-carboxamide]"
–,–,0.8 nM,> 80%,"CNC(=O)N1CCc2c(c(N3CCCc4cc(-c5cnn(C)c5)c(C(F)F)cc43)nn2C2CCN(C(=O)CCCCCCCNc3cccc4c3C(=O)N(C3CCC(=O)NC3=O)C4=O)CC2)C1 (stereo not shown) [P-036, 3-(7-(difluoromethyl)-6-(1-methyl-1H-pyrazol-4-yl)-3,4-dihydroquinolin-1(2H)-yl)-1-(1-(8-((2-(2,6-dioxopiperidin-3-yl)-1,3-dioxoisoindolin-4-yl)amino)octanoyl)piperidin-4-yl)-N-methyl-1,4,6,7-tetrahydro-5H-pyrazolo[4,3-c]pyridine-5-carboxamide]"

# More lines, now with the values behind:
Structure (SMILES),IC50 (LNCaP cells; CellTiter-Glo (Table 3)),inhibition at 0.01 µM (P300; [1]),IC50 (LNCaP cells; CellTiter-Glo (Table 2)),inhibition at 0.01 µM (P300; [2])
"CNC(=O)N1CCc2c(c(N3CCCc4cc(-c5cnn(C)c5)c(C(F)F)cc43)nn2C2CCN(C(=O)CCOCCOCCC(=O)N[C@H](C(=O)N3C[C@H](O)C[C@H]3C(=O)NCc3ccc(-c4scnc4C)cc3)C(C)(C)C)CC2)C1 [P-067, 3-(7-(Difluoromethyl)-6-(1-methyl-1H-pyrazol-4-yl)-3,4-dihydroquinolin-1(2H)-yl)-1-(1-(3-(2-(3-(((S)-1-((2S,4R)-4-hydroxy-2-((4-(4-methylthiazol-5-yl)benzyl)carbamoyl)pyrrolidin-1-yl)-3,3-dimethyl-1-oxobutan-2-yl)amino)-3-oxopropoxy)ethoxy)propanoyl)piperidin-4-yl)-N-methyl-1,4,6,7-tetrahydro-5H-pyrazolo[4,3-c]pyridine-5-carboxamide]",32 nM,< 20%,–,–
"CNC(=O)N1CCc2c(c(N3CCCc4cc(-c5cnn(CC(=O)NCCOCCOCCOCCC(=O)N[C@H](C(=O)N6C[C@H](O)C[C@H]6C(=O)NCc6ccc(-c7scnc7C)cc6)C(C)(C)C)c5)c(C(F)F)cc43)nn2C2CCOCC2)C1 [P-077, 3-(7-(Difluoromethyl)-6-(1-((S)-17-((2S,4R)-4-hydroxy-2-((4-(4-methylthiazol-5-yl)benzyl)carbamoyl)pyrrolidine-1-carbonyl)-18,18-dimethyl-2,15-dioxo-6,9,12-trioxa-3,16-diazanonadecyl)-1H-pyrazol-4-yl)-3,4-dihydroquinolin-1(2H)-yl)-N-methyl-1-(tetrahydro-2H-pyran-4-yl)-1,4,6,7-tetrahydro-5H-pyrazolo[4,3-c]pyridine-5-carboxamide]",> 10000 nM,< 20%,–,–
"CC(=O)N1CCc2c(c(N3CCCc4cc(-c5cnn(C)c5)c(C(F)F)cc43)nn2C2CCN(C(=O)CCCCNc3ccc4c(c3)n(C)c(=O)n4C3CCC(=O)NC3=O)CC2)C1 (stereo not shown) [P-126, 3-(5-((5-(4-(5-Acetyl-3-(7-(difluoromethyl)-6-(1-methyl-1H-pyrazol-4-yl)-3,4-dihydroquinolin-1(2H)-yl)-4,5,6,7-tetrahydro-1H-pyrazolo[4,3-c]pyridin-1-yl)piperidin-1-yl)-5-oxopentyl)amino)-3-methyl-2-oxo-2,3-dihydro-1H-benzo[d]imidazol-1-yl)piperidine-2,6-dione]",94 nM,> 80%,–,–
"CNC(=O)N1CCc2c(c(N3CCCc4cc(-c5cnn(C)c5)c(C(F)F)cc43)nn2C2CCN(C(=O)CCCCCCCCCC(=O)N[C@H](C(=O)N3C[C@H](O)C[C@H]3C(=O)NCc3ccc(-c4scnc4C)cc3)C(C)(C)C)CC2)C1 [P-063, 3-(7-(Difluoromethyl)-6-(1-methyl-1H-pyrazol-4-yl)-3,4-dihydroquinolin-1(2H)-yl)-1-(1-(11-(((S)-1-((2S,4R)-4-hydroxy-2-((4-(4-methylthiazol-5-yl)benzyl)carbamoyl)pyrrolidin-1-yl)-3,3-dimethyl-1-oxobutan-2-yl)amino)-11-oxoundecanoyl)piperidin-4-yl)-N-methyl-1,4,6,7-tetrahydro-5H-pyrazolo[4,3-c]pyridine-5-carboxamide]",28.9 nM,20 to 50%,–,–
CNC(=O)N1CCc2c(c(N3CCCc4cc(-c5cnn(CC(=O)NCCOCCOCCNc6ccc7c(c6)C(=O)N(C6CCC(=O)NC6=O)C7=O)c5)c(C(F)F)cc43)nn2C2CCOCC2)C1 (stereo not shown) [P-029],–,–,578 nM,< 20%
"CNC(=O)N1CCc2c(c(N3CCCc4cc(-c5cnn(CC(=O)NCCOCCOCCNc6cccc7c6C(=O)N(C6CCC(=O)NC6=O)C7=O)c5)c(C(F)F)cc43)nn2C2CCOCC2)C1 (stereo not shown) [P-022, 3-(7-(Difluoromethyl)-6-(1-(2-((2-(2-(2-((2-(2,6-dioxopiperidin-3-yl)-1,3-dioxoisoindolin-4-yl)amino)ethoxy)ethoxy)ethyl)amino)-2-oxoethyl)-1H-pyrazol-4-yl)-3,4-dihydroquinolin-1(2H)-yl)-N-methyl-1-(tetrahydro-2H-pyran-4-yl)-1,4,6,7-tetrahydro-5H-pyrazolo[4,3-c]pyridine-5-carboxamide]",–,–,389 nM,< 20%
